According to publication PMC11468294, “Peptide Amphiphiles as Biodegradable Adjuvants for Efficient Retroviral Gene Delivery” (Advanced Healthcare Materials, 2023):
“Also recorded” adds a separate entry of the source. Where a SMILES comes first, the peptide text is derived from it. Where no end group is shown, it is not given here. The star is where a group is joined. Palmitoyl = CCCCCCCCCCCCCCCC(=O)*; Nonanoyl = CCCCCCCCC(=O)*

Legend:
HeLa cells = format: in vitro ADME; conditions: HeLa cells; for degradability by cells (in words): 2 µg peptide added to 20,000 cells, d0 (30 min) vs d3, degradable if number and size of aggregates are reduced after 3 days; for degradability (percentual degradation by aggregate number): 2 µg peptide (10 µg mL-1) added to 20,000 cells, 37°C, aggregates > 10 µm2 in 1008 µm × 1008 µm at d3 (72 h) vs d0 (30 min), Proteostat, confocal, three technical replicates
Procedure: Confocal laser scanning microscopy and degradation study with PA library and HeLa cells: Confocal laser scanning microscopy studies were performed for the visualization of the cell‐PA interaction. HeLa cells were seeded one day prior to conducting the assay (20000/well) in an 8‐well IBIDI slide. 2 µL of the preformed peptide fibrils (1 mg mL^−1) were diluted with 2 µL Proteostat (Enzo Life Science, 1 µL stock in 99 µL PBS) and incubated for 10 min and further diluted with medium to receive a final peptide concentration of 10 µg mL^−1. The nucleus of the HeLa cells was stained with Hoechst 33 342 (NucBlue, Thermo Fisher Scientific). The peptide solution mixture was transferred to the HeLa cells and incubated for 30 min at 37°C before washing three times with PBS. The interaction of fibril clusters with cells was monitored after 30 min incubation time on a Stellaris 8 confocal laser scanning microscope (Leica) equipped with a 20x air objective and laser excitation wavelengths of 405 nm (Hoechst), and 561 nm (Proteostat). For the evaluation of aggregate degradation, the samples were further incubated at 37°C for 3 d and analyzed without any additional washing step. The evaluation of aggregate size and number was conducted by analyzing Proteostat stained aggregates via the 3D objects counter function of ImageJ 1.53f51 for 3 individual measurements (area 1008 µm × 1008 µm). […] The number of aggregates were determined by counting aggregates larger than the threshold 10 µm^2 in an area of 1008 µm × 1008 µm and repeated in three technical triplicates.
(§1) 7 Effects of PA modifications on properties and activity
(§2) To investigate the effects of modification in the PA sequence, we created various peptide amphiphiles derived from PA1 by varying the (I) hydrophobic moiety, (II) the linkage chemistry and (III) the peptide sequence (Figure S12, SI chapter 7.1 – 7.3). The color code for sequence representation is yellow for the hydrophobic moiety, blue for cationic amino acids, red for non-polar amino acids, purple for polar uncharged amino acids, and green for anionic amino acids. To be concise, only the summarized information will be discussed, all original data for the peptides are summarized in the (Figure S26 - […]
(§3) Figure S12 Summarized overview of peptide amphiphile library in which systematic variations the original sequence […]
(§4) chemistry and (III) the peptide sequence on infectivity enhancement and degradability (see SI chapter 7.1 – 7.3).
(§5) In the following section a compound is considered infectivity enhancing if n-fold infectivity at 1.3 µM is larger than 2. A compound is considered to form µm-sized aggregates if visible particles were observed in widefield microscopy (brightfield or ThT-staining filter, objective 10x) or confocal […]
(§6) than 1000 kcps in Zeta-Potential measurements.
(§7) For the degradability only the PAs which could be stained with Proteostat (Figure S26) and were visible in microscopy (Figure S15, Figure S18, Figure S21, and Figure S22) were studied in detail. To determine […]
whether a PA is degraded or not, Proteostat stained PAs which are added to Hela cells (2 µg peptide added to 20.000 cells) and studied via confocal laser scanning microscopy. Microscopy is conducted at day 0 (d0, after 30 min of incubation) and at day 3 (d3, after 72 h of incubation). The number of aggregates >10 µm2 is counted via 3D object counter in ImageJ in an area of 1008 µm × 1008 µm.
A PA is considered as degradable if the number and the size of aggregates are reduced after 3 days.
The efficiency is determined by the percentual degradation (aggregate number at d3 / aggregate number at d0). Three technical replicates were evaluated for each sample. A large deviation in number and size of aggregates represents a nonhomogeneous distribution and polymorphism of aggregates.

[1] = system: HIV-1 infection of TZM-bl cells; assay: HIV-1 infection assay (β-galactosidase luminescence reporter); format: cell-based
Procedure: HIV‐1 Infection Assay: The effect of peptide fibrils on HIV‐1 infection was studied via a luminescence assay for β‐galactosidase, which was reported by TZM‐bl cells upon infection. 10000 TZM‐bl cells were seeded in 180 µl supplemented DMEM one day prior infection. The cells were inoculated with 20 µl PNF solution 1:1 (v/v) mixed with virus (1:500 dilution) after an incubation time of 10 min. The HIV‐1 infection assay was conducted in three technical replicates and repeated in three independent experiments unless stated otherwise. The assay was conducted as described before.^[ [20] ^]

[2] = Microscopic aggregation (fluorescence / confocal microscopy, derived count rate); format: physicochemical; conditions: fibrils preformed at 1 mg mL-1 in PBS; ThT or Proteostat stain, widefield or confocal microscopy; derived count rate > 1000 kcps as criterion
Procedure: Transmission electron microscopy (TEM) measurements, Thioflavin (ThT), zeta‐potential measurements for fibril characterization, ATR‐IR spectra acquisition and the calculation of β−sheet were prepared and conducted analogous to a previous report.^[ [20], [86] ^] […] Fibrils were defined as distinct, if no visible structures could be identified in fluorescence and brightfield microscopy. […] The derived count rate of the zeta‐potential measurement was used as information on the light scattering intensity and turbidity of the sample as a further indicator for microscopic aggregation.^[ [90] ^]
Fluorescence microscopy: 1 µL Fibrils (1 mg mL^−1) were stained with 9 µL, 50 µM ThT. 10 µL of the stained fibrils (0.1 mg mL^−1) were placed on a microscopy glass. Fluorescence microscopy measurements were performed on a Leica DMi8 microscope with 10x air objective and equipped with a Leica MC170 HD camera with a filter setting λem = 527/30 nm upon excitation at λex = 480/40 nm) and processed with the Leica LASX software.
as §1, §2, §3, §4, §5, §6, §7
whether a PA is degraded or not, Proteostat stained PAs which are added to Hela cells (2 µg peptide added to 20.000 cells) and studied via confocal laser scanning microscopy. […]
In the following, we will distinguish between three aggregation types for fibrillar structures: Fibrils which were not aggregating (below resolution limit of the microscope, approx. 650 nm), moderately aggregating (< 50 µm2) and aggregating to large particles (> 50 µm 2).
7.1 Effects of hydrophobic moiety exchange on properties and activity
To investigate the effects of varying hydrophobic moieties on assembly, aggregation and activity , we

Compound	degradability by cells (in words) (HeLa cells)	formation of µm-sized aggregates (in words) [2]	also measured
CCCCCCCCCCCCCCCC(=O)OC[C@H](N)C(=O)N[C@H](C(=O)N[C@H](C(=O)N[C@H](C(=O)N[C@@H](C)C(=O)N[C@@H](C)C(=O)N[C@@H](C)C(=O)N[C@@H](CCCCN)C(=O)N[C@@H](CCCCN)C(=O)N[C@@H](CCCCN)C(N)=O)C(C)C)C(C)C)C(C)C (H-S(Palmitoyl)VVVAAAKKK-NH2)	degraded well		
C16-disulfide-CVVVAAAKKK-NH2 [PA1 variant with disulfide linker]		not forming visible aggregates	reduction of infectivity enhancement relative to the original amide-linked PA ([1]; n-fold at 1.3 µM): approx. 60%
CCCCCCCCCCCCCCCC(=O)N[C@@H](CC(C)C)C(=O)N[C@@H](CC(N)=O)C(=O)NCC(=O)NCC(=O)N[C@H](C(=O)N[C@@H](CCCCN)C(=O)N[C@@H](CCCCN)C(N)=O)C(C)C [C16-LNGGVKK-NH2] (Palmitoyl-LNGGVKK-NH2)			degradability (percentual degradation by aggregate number) (HeLa cells): 48%
CCCCCCCCCCCCCCCC(=O)N[C@@H](C)C(=O)N[C@H](C(=O)N[C@@H](C)C(=O)N[C@@H](CCCCN)C(=O)N[C@@H](CCCCN)C(=O)N[C@@H](CCCCN)C(N)=O)C(C)C [C16-AVAKKK-NH2] (Palmitoyl-AVAKKK-NH2)		not forming µm-sized aggregates and forming too few/less aggregates, respectively	
CCCCCCCCCCCCCCCC(=O)NCC(=O)NCC(=O)NCC(=O)N[C@@H](CO)C(=O)N[C@@H](CO)C(=O)N[C@@H](CCCCN)C(=O)N[C@@H](CCCCN)C(=O)N[C@@H](CCCCN)C(N)=O (Palmitoyl-GGGSSKKK-NH2)		not forming µm-sized aggregates and forming too few/less aggregates, respectively; also recorded: cannot form µm‐sized aggregates	infectivity enhancement of HIV-1 (in words) ([1]; infectivity enhancing if n-fold at 1.3 µM larger than 2): Inactive
CCCCCCCCCCCCCCCC(=O)N[C@@H](CC(N)=O)C(=O)N[C@@H](Cc1ccccc1)C(=O)N[C@@H](Cc1ccc(O)cc1)C(=O)N[C@@H](CC(C)C)C(=O)N[C@@H](CCC(N)=O)C(=O)N[C@H](C(=O)N[C@@H](CC(N)=O)C(=O)N[C@@H](CCCCN)C(=O)N[C@H](C(=O)N[C@@H](CC(N)=O)C(=O)N[C@@H](CCCCN)C(N)=O)[C@@H](C)CC)C(C)C (Palmitoyl-NFYLQVNKINK-NH2)	degraded incompletely	very large aggregates	
CCCCCCCCCCCCCCCC(=O)N[C@@H](C)C(=O)N[C@@H](CC(C)C)C(=O)N[C@@H](C)C(=O)N[C@@H](C)C(=O)NCC(=O)N[C@@H](CCCCN)C(=O)N[C@@H](CCCCN)C(N)=O [C16-ALAAGKK-NH2] (Palmitoyl-ALAAGKK-NH2)			degradability (percentual degradation by aggregate number) (HeLa cells): 87%
CCCCCCCCCCCCCCCC(=O)N[C@@H](CCCCN)C(=O)N[C@H](C(=O)N[C@H](C(=O)N[C@@H](CO)C(=O)N[C@@H](Cc1ccccc1)C(=O)N[C@@H](CCCCN)C(N)=O)[C@@H](C)CC)[C@@H](C)CC [C16-KIISFK-NH2] (Palmitoyl-KIISFK-NH2)	degraded incompletely	very large aggregates	
CCCCCCCCCCCCCCCC(=O)N[C@@H](C)C(=O)N[C@@H](C)C(=O)N[C@H](C(=O)N[C@H](C(=O)N[C@@H](Cc1c[nH]cn1)C(=O)N[C@@H](Cc1c[nH]cn1)C(=O)N[C@@H](CCCCN)C(N)=O)C(C)C)C(C)C [C16-AAVVHHK-NH2] (Palmitoyl-AAVVHHK-NH2)	degraded incompletely	very large aggregates	
CCCCCCCCCCCCCCCC(=O)N[C@@H](CCCCN)C(=O)N[C@@H](Cc1ccc(O)cc1)C(=O)N[C@H](C(=O)N[C@@H](Cc1c[nH]cn1)C(=O)N[C@@H](CCC(N)=O)C(=O)N[C@@H](CC(N)=O)C(=O)N[C@@H](Cc1ccc(O)cc1)C(=O)N[C@H](C(=O)N[C@@H](CCCCN)C(=O)N[C@@H](C)C(=O)N[C@@H](CC(C)C)C(=O)N[C@@H](C)C(=O)NCC(=O)N[C@@H](CCCCN)C(=O)N[C@@H](CC(C)C)C(=O)N[C@H](C(N)=O)C(C)C)[C@@H](C)O)[C@@H](C)CC (Palmitoyl-KYIHQNYTKALAGKLV-NH2)	degraded incompletely	very large aggregates	
C16-AQAKAK [library peptide amphiphile, palmitic acid at the N-terminus]	degraded incompletely	very large aggregates	
CCCCCCCCCCCCCCCC(=O)N[C@@H](C)C(=O)N[C@@H](CCCCN)C(=O)N[C@@H](C)C(=O)N[C@H](C(=O)NCC(=O)N[C@@H](CCCCN)C(N)=O)C(C)C [C16-AKAVGK-NH2] (Palmitoyl-AKAVGK-NH2)			degradability (percentual degradation by aggregate number) (HeLa cells): 89%
C16‐thioester‐CVVVAAAKKK‐NH2 [PA1 variant with thioester linker]		small, well distributed aggregates	degradability (percentual degradation by aggregate number) (HeLa cells): 87%
CCCCCCCCCCCCCCCC(=O)N[C@H](C(=O)N[C@H](C(=O)N[C@@H](C)C(=O)N[C@@H](C)C(=O)N[C@@H](Cc1c[nH]cn1)C(=O)N[C@@H](Cc1c[nH]cn1)C(=O)N[C@@H](Cc1c[nH]cn1)C(N)=O)C(C)C)C(C)C [C16-VVAAHHH-NH2] (Palmitoyl-VVAAHHH-NH2)	increase in size, decrease in number	very large aggregates	
CCCCCCCCC(=O)N[C@H](C(=O)N[C@H](C(=O)N[C@H](C(=O)N[C@@H](C)C(=O)N[C@@H](C)C(=O)N[C@@H](C)C(=O)N[C@@H](CCCCN)C(=O)N[C@@H](CCCCN)C(=O)N[C@@H](CCCCN)C(N)=O)C(C)C)C(C)C)C(C)C [C9] (Nonanoyl-VVVAAAKKK-NH2)	reduced in number of aggregates, but increases in size		
NFYLQVNKINK-NH2	no good degradability		
